Three molecules from paper PMC10601554 (Protein Science : A Publication of the Protein Society, 2023) can be followed below.

The target of data set [1] is T1, RBP-NN-His/RBP-TruncIIN-Strep co-expressed heterodimer (Thermotoga maritima, UniProt Q9X053).
T1 construct: gene TM_0958; halves co-expressed in E. coli BL21(DE3); N-terminal His6 tag on RBP-N (border also printed as 153), N-terminal Strep-tag on RBP-TruncII
Kind of data set: differential scanning calorimetry. Particulars: 10 mM sodium phosphate, 50 mM NaCl, pH 7.8; 50 μM protein, 0.5 mM ribose; irreversible unfolding; possible residual ribose carried over. It counts as binding.

In data set [2] the target is T2, RBP-N/RBP-Trunc mixed heterodimer (Thermotoga maritima, UniProt Q9X053).
T2 construct: gene TM_0958; separately expressed halves mixed equimolar in vitro; E. coli BL21(DE3); His tag likely; dimer of heterodimers
T2 sequence (Q9X053 entry or part of it, one chain of several): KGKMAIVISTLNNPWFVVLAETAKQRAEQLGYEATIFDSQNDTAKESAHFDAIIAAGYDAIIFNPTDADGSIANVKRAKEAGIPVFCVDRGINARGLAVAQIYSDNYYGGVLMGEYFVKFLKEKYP
Nature of the data set: isothermal titration calorimetry. The note with it: 10 mM sodium phosphate, 50 mM NaCl, pH 7.8, 20°C; 100 μM protein; 1:1 model. It is filed as binding.

Data set [3] deals with T3, RBP-NN-His/RBP-CN-Strep co-expressed heterodimer (Thermotoga maritima, UniProt Q9X053).
T3 construct: gene TM_0958; halves co-expressed in E. coli BL21(DE3); N-terminal His6 tag on RBP-N (border also printed as 153), N-terminal Strep-tag on RBP-C; lacks C-terminal cross-over strands; oligomeric state not determined
T3 sequence (Q9X053 entry or part of it, one chain of several): as above
Nature of the data set: differential scanning calorimetry. It counts as binding. The note with it: 10 mM sodium phosphate, 50 mM NaCl, pH 7.8; 50 μM protein, 0.5 mM ribose; irreversible unfolding.

In data set [4] the target is T2, RBP-N/RBP-Trunc mixed heterodimer. Nature of the data set: differential scanning calorimetry. It counts as binding. Particulars: 10 mM sodium phosphate, 50 mM NaCl, pH 7.8; 50 μM protein, 0.5 mM ribose; irreversible unfolding.
The target of data set [5] is RBP‐N/RBP‐Trunc mixed heterodimer (first generation) (Thermotoga maritima) (UniProt Q9X053). Nature of the data set: SEC-MALS; single purified proteins, and RBP‐N and RBP‐Trunc purified one by one and mixed in an equimolar ratio; Superdex 75 Increase 10/300 GL, 10 mM sodium phosphate, 50 mM sodium chloride, 0.02% sodium azide, pH 7.8, room temperature, 0.8 mL min^-1.
Data set [6] concerns the molecule itself. Described as above.

T1 sequence (Q9X053 entry or part of it, one chain of several): as above

For `OC1OC[C@@H](O)[C@@H](O)[C@H]1O` (stereo partly drawn) [ribose], the values for the dTm in data set [1], in data set [3] and in data set [4] were 9.1 °C, 15.1 °C and ~ 14 °C, respectively. In data set [2], the dissociation constant (Kd) was 6.8 ± 0.7 µM.

Regarding “RBP‐N/RBP‐Trunc mixed heterodimer (first generation) (from UniProt Q9X053 30-153; Q9X053 142-310) (complex)”, in data set [5], the stoichiometry N worked out at 2.

B1: RBP‐Trunc (truncated T. maritima RBP, residues 142–310, first generation) (domain or fragment, Thermotoga maritima, UniProt Q9X053 142-310, looked up)
chain: MGEYFVKFLKEKYPDAKEIPYAELLGILSAQPTWDRSNGFHSVVDQYPEFKMVAQQSAEFDRDTAYKVTEQILQAHPEIKAIWCGNDAMALGAMKACEAAGRTDIYIFGFDGAEDVINAIKEGKQIVATIMQFPKLMARLAVEWADQYLRGERSFPEIVPVTVELVTRE
notes: also called RPB‐Trunc
On to B1, for which the “stoichiometry N” value in data set [6] was determined as 2.
